Data from patent US11208412B2 (DAEGU-GYEONGBUK MEDICAL INNOVATION FOUNDATION, priority 2017, dated 2021).

What was measured:
Assay in all cases: Kinase selectivity, DiscoverX scanMAX Kinase assay panel (% control)
Assay type in all cases: binding
[1] = target: T1, kinases of the scanMAX Kinase assay panel (Homo sapiens, UniProt P00519, H396P); details: 1 uM
T1 construct: purchased DiscoverX Co. (contract measurement) scanMAX Kinase assay panel
Procedure, shortened: (§1)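 Single-point screen, 1 uM cpd in DMSO. % ctrl = (cpd − pos ctrl)/(neg ctrl − pos ctrl)×100; pos ctrl = 0%, DMSO neg ctrl = 100%. Hit cutoff <35%.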

[2] = target: T2, kinases of the scanMAX Kinase assay panel (Homo sapiens, UniProt P09769); details: FGR; 1 uM
T2 construct: purchased DiscoverX Co. (contract measurement) scanMAX Kinase assay panel
T2 sequence (P09769 whole entry): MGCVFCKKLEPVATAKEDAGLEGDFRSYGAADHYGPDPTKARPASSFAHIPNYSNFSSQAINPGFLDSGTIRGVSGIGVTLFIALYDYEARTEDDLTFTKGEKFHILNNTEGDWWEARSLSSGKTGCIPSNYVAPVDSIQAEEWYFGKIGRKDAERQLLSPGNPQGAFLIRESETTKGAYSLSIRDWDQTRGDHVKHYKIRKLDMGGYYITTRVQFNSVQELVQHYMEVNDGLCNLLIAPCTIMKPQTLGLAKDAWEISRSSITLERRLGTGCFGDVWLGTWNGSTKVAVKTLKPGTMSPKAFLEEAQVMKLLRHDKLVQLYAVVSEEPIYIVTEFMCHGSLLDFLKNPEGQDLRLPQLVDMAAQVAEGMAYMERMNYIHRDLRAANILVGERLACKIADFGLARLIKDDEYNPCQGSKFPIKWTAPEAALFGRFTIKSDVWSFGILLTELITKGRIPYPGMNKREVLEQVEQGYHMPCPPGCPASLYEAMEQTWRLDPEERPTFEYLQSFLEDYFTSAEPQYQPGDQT
Procedure, shortened: as §1

[3] = target: T3, kinases of the scanMAX Kinase assay panel (Homo sapiens, UniProt P11362); details: FGFR1; 1 uM
T3 construct: purchased DiscoverX Co. (contract measurement) scanMAX Kinase assay panel
T3 sequence (P11362 22-822): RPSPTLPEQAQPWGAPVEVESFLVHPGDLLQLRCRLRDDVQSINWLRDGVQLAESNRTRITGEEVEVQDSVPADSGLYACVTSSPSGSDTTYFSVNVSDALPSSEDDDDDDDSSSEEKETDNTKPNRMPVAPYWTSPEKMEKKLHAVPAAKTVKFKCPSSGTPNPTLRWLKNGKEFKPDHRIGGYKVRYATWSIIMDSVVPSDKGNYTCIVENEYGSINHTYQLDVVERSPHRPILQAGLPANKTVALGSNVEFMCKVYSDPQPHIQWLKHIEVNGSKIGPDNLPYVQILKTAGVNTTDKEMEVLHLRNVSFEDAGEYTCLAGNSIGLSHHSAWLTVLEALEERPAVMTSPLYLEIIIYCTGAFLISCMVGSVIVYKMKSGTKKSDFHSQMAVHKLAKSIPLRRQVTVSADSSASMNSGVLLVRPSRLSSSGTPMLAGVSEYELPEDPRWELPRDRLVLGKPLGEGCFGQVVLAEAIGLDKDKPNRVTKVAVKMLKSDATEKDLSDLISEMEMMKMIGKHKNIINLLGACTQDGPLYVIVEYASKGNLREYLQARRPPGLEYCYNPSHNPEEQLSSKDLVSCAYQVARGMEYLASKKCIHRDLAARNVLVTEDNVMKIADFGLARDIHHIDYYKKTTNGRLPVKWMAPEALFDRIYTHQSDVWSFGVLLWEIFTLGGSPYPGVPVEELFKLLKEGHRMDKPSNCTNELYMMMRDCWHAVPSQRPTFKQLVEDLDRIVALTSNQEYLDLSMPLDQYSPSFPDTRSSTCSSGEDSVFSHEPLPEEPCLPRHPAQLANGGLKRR
Procedure, shortened: as §1

[4] = target: T4, kinases of the scanMAX Kinase assay panel (Homo sapiens, UniProt P42336, Q546K); details: PIK3CA(Q546K); 1 uM
T4 construct: purchased DiscoverX Co. (contract measurement) scanMAX Kinase assay panel
T4 sequence (P42336 whole entry Q546K): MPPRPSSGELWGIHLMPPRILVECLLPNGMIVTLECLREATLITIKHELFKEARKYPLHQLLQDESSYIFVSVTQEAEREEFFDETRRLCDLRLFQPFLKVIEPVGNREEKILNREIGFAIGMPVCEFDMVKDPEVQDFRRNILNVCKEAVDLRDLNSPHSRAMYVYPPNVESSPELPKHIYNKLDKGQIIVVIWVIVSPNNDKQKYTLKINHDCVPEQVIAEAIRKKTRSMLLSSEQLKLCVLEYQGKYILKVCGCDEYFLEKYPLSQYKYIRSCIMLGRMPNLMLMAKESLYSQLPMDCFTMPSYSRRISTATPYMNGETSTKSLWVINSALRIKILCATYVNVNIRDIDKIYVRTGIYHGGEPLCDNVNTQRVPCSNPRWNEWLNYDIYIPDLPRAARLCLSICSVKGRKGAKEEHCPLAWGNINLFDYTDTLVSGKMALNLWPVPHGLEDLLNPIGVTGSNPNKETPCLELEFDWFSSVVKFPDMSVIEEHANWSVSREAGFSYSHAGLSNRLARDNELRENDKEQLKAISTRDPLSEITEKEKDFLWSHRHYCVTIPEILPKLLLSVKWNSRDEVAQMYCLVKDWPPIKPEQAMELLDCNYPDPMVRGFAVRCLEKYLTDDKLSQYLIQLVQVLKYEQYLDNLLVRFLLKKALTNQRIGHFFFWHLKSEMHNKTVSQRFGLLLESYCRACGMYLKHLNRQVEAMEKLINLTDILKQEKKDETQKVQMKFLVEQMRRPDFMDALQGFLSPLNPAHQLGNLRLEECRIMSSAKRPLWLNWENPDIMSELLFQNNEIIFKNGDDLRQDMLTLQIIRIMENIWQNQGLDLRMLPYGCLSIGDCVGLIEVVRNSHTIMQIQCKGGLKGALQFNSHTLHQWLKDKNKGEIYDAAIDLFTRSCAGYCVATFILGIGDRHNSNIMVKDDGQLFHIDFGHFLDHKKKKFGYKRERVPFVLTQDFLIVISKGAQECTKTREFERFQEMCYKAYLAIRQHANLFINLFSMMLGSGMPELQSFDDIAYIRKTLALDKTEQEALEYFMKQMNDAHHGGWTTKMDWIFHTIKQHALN
Procedure, shortened: as §1

[5] = target: T5, kinases of the scanMAX Kinase assay panel (Homo sapiens, UniProt Q08881); details: ITK; 1 uM
T5 construct: purchased DiscoverX Co. (contract measurement) scanMAX Kinase assay panel
T5 sequence (Q08881 1-620): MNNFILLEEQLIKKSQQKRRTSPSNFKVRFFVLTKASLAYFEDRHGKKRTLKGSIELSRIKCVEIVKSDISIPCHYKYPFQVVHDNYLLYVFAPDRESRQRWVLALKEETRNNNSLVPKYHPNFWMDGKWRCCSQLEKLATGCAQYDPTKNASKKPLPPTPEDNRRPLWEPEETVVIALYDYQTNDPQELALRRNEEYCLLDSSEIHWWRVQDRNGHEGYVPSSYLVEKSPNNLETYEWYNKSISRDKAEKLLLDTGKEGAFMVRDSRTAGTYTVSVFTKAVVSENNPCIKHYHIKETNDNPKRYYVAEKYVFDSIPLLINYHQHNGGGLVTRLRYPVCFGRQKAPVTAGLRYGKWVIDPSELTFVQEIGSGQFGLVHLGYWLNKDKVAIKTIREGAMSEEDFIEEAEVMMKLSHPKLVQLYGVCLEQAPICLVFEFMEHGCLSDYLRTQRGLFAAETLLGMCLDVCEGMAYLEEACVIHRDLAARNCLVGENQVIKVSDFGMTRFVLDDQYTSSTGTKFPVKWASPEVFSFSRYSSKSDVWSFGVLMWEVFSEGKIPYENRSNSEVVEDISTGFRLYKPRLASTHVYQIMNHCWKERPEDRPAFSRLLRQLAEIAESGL
Procedure, shortened: as §1

[6] = target: T6, kinases of the scanMAX Kinase assay panel (Homo sapiens, UniProt Q12852); details: DLK; 1 uM
T6 construct: purchased DiscoverX Co. (contract measurement) scanMAX Kinase assay panel
T6 sequence (Q12852 1-859): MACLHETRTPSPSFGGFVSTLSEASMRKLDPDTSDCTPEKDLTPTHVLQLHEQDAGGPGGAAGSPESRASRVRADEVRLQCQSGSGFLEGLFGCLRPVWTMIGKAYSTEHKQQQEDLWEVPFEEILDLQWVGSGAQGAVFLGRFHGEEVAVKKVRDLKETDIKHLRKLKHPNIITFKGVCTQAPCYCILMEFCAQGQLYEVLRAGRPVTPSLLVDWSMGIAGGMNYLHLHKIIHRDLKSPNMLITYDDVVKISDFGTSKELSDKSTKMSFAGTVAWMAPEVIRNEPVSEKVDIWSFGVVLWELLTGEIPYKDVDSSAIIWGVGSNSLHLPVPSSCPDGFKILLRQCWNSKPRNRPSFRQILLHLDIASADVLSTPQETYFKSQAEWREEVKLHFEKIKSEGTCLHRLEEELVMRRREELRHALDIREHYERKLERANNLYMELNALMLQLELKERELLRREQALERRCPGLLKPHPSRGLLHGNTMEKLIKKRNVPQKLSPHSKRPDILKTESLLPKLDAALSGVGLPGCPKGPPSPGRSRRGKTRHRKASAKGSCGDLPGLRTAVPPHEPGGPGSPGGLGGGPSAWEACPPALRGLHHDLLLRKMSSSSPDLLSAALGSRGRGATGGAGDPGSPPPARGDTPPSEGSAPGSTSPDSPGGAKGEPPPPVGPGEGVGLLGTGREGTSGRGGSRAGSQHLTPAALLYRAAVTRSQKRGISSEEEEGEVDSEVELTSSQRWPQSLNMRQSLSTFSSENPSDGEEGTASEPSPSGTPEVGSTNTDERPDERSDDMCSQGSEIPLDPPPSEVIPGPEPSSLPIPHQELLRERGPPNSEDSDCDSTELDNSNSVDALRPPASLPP
Procedure, shortened: as §1

[7] = target: T7, kinases of the scanMAX Kinase assay panel (Homo sapiens, UniProt Q13470); details: kinase TNK1; 1 uM in DMSO
T7 construct: purchased DiscoverX Co. (contract measurement) scanMAX Kinase assay panel
T7 sequence (Q13470 1-666): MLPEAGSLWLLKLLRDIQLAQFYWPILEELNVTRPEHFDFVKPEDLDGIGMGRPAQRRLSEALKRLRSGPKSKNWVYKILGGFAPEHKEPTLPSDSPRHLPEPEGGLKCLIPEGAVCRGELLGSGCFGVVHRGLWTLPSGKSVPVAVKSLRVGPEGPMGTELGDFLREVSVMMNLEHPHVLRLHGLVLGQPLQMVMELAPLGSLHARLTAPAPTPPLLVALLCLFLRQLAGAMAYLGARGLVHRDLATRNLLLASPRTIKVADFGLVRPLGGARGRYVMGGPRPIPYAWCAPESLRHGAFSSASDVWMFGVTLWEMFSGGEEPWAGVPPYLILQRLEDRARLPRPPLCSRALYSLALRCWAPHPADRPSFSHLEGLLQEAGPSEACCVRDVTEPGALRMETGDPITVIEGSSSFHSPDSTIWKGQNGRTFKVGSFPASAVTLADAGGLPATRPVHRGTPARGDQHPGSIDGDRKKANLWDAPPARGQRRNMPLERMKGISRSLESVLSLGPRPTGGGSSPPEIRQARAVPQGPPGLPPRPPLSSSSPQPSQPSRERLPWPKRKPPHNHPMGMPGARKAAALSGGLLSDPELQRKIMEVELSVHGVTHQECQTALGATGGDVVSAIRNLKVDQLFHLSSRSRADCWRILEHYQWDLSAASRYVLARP
Procedure, shortened: as §1

SMILES: CC1(Nc2nc(Nc3cnn([C@H]4CCN(C5COC5)C[C@@H]4F)c3Cl)nc3[nH]cc(C#N)c23)CC1 [Example 52, 2-((5-chloro-1-((3S,4S)-3-fluoro-1-(oxetane-3-yl)piperidine-4-yl)-1H-pyrazole-4-yl)amino)((1-methylcyclopropyl)amino)-7H-pyrrolo[2,3-d]pyrimidine-5-carbonitrile]
- remaining binding at 1 µM ([1]; ABL1(H396P)-nonphosphorylated): 0.55%
- remaining binding at 1 µM ([1]; ABL1(H396P)-phosphorylated): 0.9%
- remaining binding at 1 µM [2]: 10%
- remaining binding at 1 µM [3]: 42%
- remaining binding at 1 µM [4]: 85%
- remaining binding at 1 µM [5]: 9.7%
- remaining binding at 1 µM [6]: 21%
- remaining binding at 1 µM [7]: 18%

SMILES: CNc1nc(Nc2ccc(C(=O)N3CCOCC3)cc2OC)nc2[nH]cc(C#N)c12 [Example 1, 2-((2-methoxy-4-(morpholine-4-carbonyl)phenyl)amino)-4-(methylamino)-7H-pyrrolo[2,3-d]pyrimidine-5-carbonitrile]
- remaining binding at 1 µM ([1]; ABL1(H396P)-nonphosphorylated): 81%
- remaining binding at 1 µM ([1]; ABL1(H396P)-phosphorylated): 94%
- remaining binding at 1 µM [2]: 94%
- remaining binding at 1 µM [3]: 97%
- remaining binding at 1 µM [4]: 75%
- remaining binding at 1 µM [5]: 99%
- remaining binding at 1 µM [6]: 74%
- remaining binding at 1 µM [7]: 85%

SMILES: CCNc1nc(Nc2ccc(C(=O)N3CCC(N4CCOCC4)CC3)cc2OC)nc2[nH]cc(C(F)(F)F)c12 [Example 104, (4-((4-(ethylamino)-5-(trifluoromethyl)-7H-pyrrolo[2,3-d]pyrimidine-2-yl)amino)-3-methoxyphenyl)(4-morpholinopiperidine-1-yl)methanone]
- remaining binding at 1 µM ([1]; ABL1(H396P)-nonphosphorylated): 96%
- remaining binding at 1 µM ([1]; ABL1(H396P)-phosphorylated): 74%
- remaining binding at 1 µM [2]: 100%
- remaining binding at 1 µM [3]: 100%
- remaining binding at 1 µM [4]: 87%
- remaining binding at 1 µM [5]: 100%
- remaining binding at 1 µM [6]: 100%
- remaining binding at 1 µM [7]: 16%
